According to US20170143712A1, “Methods of Treating Cancers, Immune and Autoimmune Diseases, and Inflammatory Diseases Based on BTK Occupancy and BTK Resynthesis Rate” (Acerta Pharma B.V., priority 2014, published 2017):

Experiments:
Type in all cases: in vivo
[1] = test system: systemic lupus erythematosus (SLE) in MRL/MpJFASlpr mice; test: MRL/MpJFASlpr mouse model of systemic lupus erythematosus; settings: 15 mg/kg IP QD
Protocol: A study designed to determine the effects of candidate anti-inflammatory agent Formula (II) in oral (PO), daily (QD) administration in the treatment of systemic lupus erythematosus (SLE) in MRL/MpJFASlpr mice. Formula (II) was preformulated in vehicle (0.4% HPMC, 0.1% Tween 80, with simethicone for antifoaming). The female MRL/MpJFASlpr mice were dosed with vehicle or Formula (II) (1, 5, or 25 mg/kg) daily (QD) by the oral (PO) route dosing, or they were dosed QD by the intraperitoneal (IP) route with the reference compound cyclophosphamide (15 mg/kg). Prior to dosing, the candidate anti-inflammatory agent was reconstituted either by vortexing or stirring. […]
Female MRL/MpJFASlpr mice (n=50) that were 8-9 weeks old and weighed approximately 28-41 grams (mean 34 g) at enrollment (mouse age approx. 12 weeks) were obtained from The Jackson Laboratory, Bar Harbor, Me. (stock number 000485). These mice were housed 3-5/cage in shoe-box polycarbonate cages with wire tops, wood chip bedding, and suspended food and water bottles. No concurrent medications were given.
When they were 12 weeks old (study day 0), the female MRL/MpJFASlpr mice (n=10/group) were randomized by body weight into 5 groups as shown above. Treatment was initiated after randomization and continued for […] (mouse age 12 weeks to 23 weeks).
Starting on study week one, and then every week thereafter urine from each animal was tested for proteinuria using the Clinitech Multistick test strip (Bayer). The animals were also observed daily for significant clinical signs, moribundity and mortality. […] Efficacy evaluation was based on animal body weights, proteinuria analysis, lymphadenopathy scores, skin lesion scores, organ weights, anti-dsDNA titers, clinical chemistry parameters, and histopathologic evaluation of the kidneys.
Any animals showing signs of morbundity were terminated immediately. At necropsy (3 h post-dose, mouse age 23 weeks), all remaining animals were anesthetized with Isoflurane and bled via cardiac puncture for serum and plasma (Li Heparin). The animals were bled to exsanguinate then euthanized by cervical dislocation. Spleens, kidneys (paired), and lymph nodes were collected and weighed. Kidneys were collected into 10% neutral buffered formalin (NBF). Spleens were placed in RPMI 1% FBS media for splenocyte isolation. Serum samples for potential clinical chemistry analysis were stored frozen at −80° C. until shipment to Antech Diagnostics. Plasma samples were stored frozen at −80° C. for mouse antidsDNA IgG analysis by ELISA.
Blood samples were drawn via cardiac puncture from Isoflurane anesthetized animals into serum separator microtainer tubes for clinical chemistries. Samples were shipped to Antech Diagnostics for analysis.

[2] = test system: established type II collagen-induced arthritis (CIA) in DBA/1 mice; test: 14-day mouse established type II collagen-induced arthritis (CIA), PO QD (Example 10); settings: 0.2 mg/kg PO QD; mean(SE)
Protocol: Prior to dosing, the candidate anti-inflammatory agents were reconstituted either by vortexing or stirring. The candidate anti-inflammatory agents were administered to the DBA/1 mice daily (QD) by the oral (PO) route.
Immunization with heterologous type II collagen (CII) induces arthritis in mice of the DBA/1 strain, which is genetically susceptible to this disease. To develop an experimental model of autoimmunity more adequate for the study of human rheumatoid arthritis (RA), male DBA/1 mice were injected intradermally (ID) with bovine type II collagen to induce arthritis as reported by Trentham et al (Trentham D E, Townes A S, Kang A H Autoimmunity to type II collagen: an experimental model of arthritis. J. Exper. Med. 1977, 146:857-868) and Bendele A (Bendele A, Animal models of rheumatoid arthritis. J. Musculoskelet. Neuronal Interact. 2001, 1(4):377-85). Male DBA/1 mice (n=114) that were 6-7 weeks old and weighed approximately 18-27 grams (mean 22 g) at enrollment (arthritis day 1) were obtained from Taconic Farms, Inc. The male DBA/1 mice were at least 6 weeks old at time of first immunization and were housed 3-5/cage in shoe-box polycarbonate cages with wire tops, wood chip bedding, and suspended food and water bottles. These animals were identified by a distinct number of ink marks at the base of the tail delineating animal number. After enrollment, all cages were labeled with protocol number, group number, and animal numbers.
The male DBA/1 (n=10/group for arthritis) were anaesthetized with Isoflurane, shaved at the base of the tail, and injected intradermally with 150 μL of Freund's Complete Adjuvant (Difco, Detroit, Mich.) containing bovine type II collagen (BBP, batch #7) (1 mg/ml) at the base of the tail on day 0 and again on day 21. […] Randomization was done after swelling was obviously established in at least one paw (score of 1) and attempts were made to ensure approximately equal mean scores of 0.5-1 across groups at the time of enrollment. […] The male DBA/1 mice were terminated on arthritis day 14 (3 hours post-dose).
(§1) Efficacy evaluation of the administered anti-inflammatory agents was based on animal body weights, clinical arthritis scores, arthritis scores expressed as area under the curve (AUC), and histopathology on fore paws, hind paws, and knees. Histopathology results were expressed as 4 paws, knees only, or 6 joints (knees included). Day 13 was used as the endpoint for analysis of body weight change since the male DBA/1 mice were fasted overnight prior to necropsy on day 14.

[3] = test system: established type II collagen-induced arthritis (CIA) in DBA/1 mice; test: Mouse established CIA, dosing from arthritis day 8, QD or BID (Example 11)
Excerpt: A study was designed to determine the efficacy of a covalently acting BTK inhibitor, Formula (II) in inhibiting acute inflammation, pannus formation, cartilage destruction, and bone resorption associated with established type II collagen-induced arthritis (CIA) in DBA/1 mice. Immunization with heterologous type II collagen (CII) induces arthritis in mice of the DBA/1 strain, which is genetically susceptible to this disease. To develop an experimental model of autoimmunity more adequate for the study of human rheumatoid arthritis (RA), male DBA/1 mice were injected intradermally (ID) with bovine type II collagen to induce arthritis as reported by Trentham et al (Trentham D E, Townes A S, Kang A H Autoimmunity to type II collagen: an experimental model of arthritis. J. Exper. Med. 1977, 146:857-868) and Bendele A (Bendele A, Animal models of rheumatoid arthritis. J. Musculoskelet. Neuronal Interact. 2001, 1(4):377-85).
Following acclimatization, 6-7 week old male DBA/1 mice (n=10/group for arthritis) were immunized at the base of the tail, with 150 μL of Freund's Complete Adjuvant (Difco, Detroit, Mich.) containing 1 mg/mL bovine type II collagen by intradermal injection. Immunizations were performed day 0 and again on day 21. On study days 25-26, on day 8 following onset of arthritis, the mice were randomized into treatment groups. […] Dosing began on arthritis day 8 by oral gavage. Groups were treated with vehicle (0.4% HPMC, 0.2% Tween 80), Formula (II) at 25 mg/kg QD, Formula (II) at 12.5 mg/kg BID, or the reference compound dexamethasone (Dex) at 0.2 mg/kg QD. These animals were fasted overnight on arthritis day 20 (13 days after enrollment) prior to necropsy on arthritis day 21. Clinical scores were given for each of the paws (right front, left front, right rear, left rear) on arthritis days 1-21.
as §1, with “evaluation” for “evaluation of the administered anti-inflammatory agents”, “19” for “13”, “21.” for “14.”
Necropsies were conducted on fasted mice and terminal serum, fore paws, hind paws, and knees were collected into 10% neutral buffered formalin (NBF) for microscopy. Spleens were harvested and weighed.

## O=P1(N(CCCl)CCCl)NCCCO1 (stereo not drawn) [Cyclophosphamide, cyclophosphamide, reference compound]
[1]
  Percent Survival: 100%
  anti-dsDNA IgG levels in plasma, reduction vs Vehicle Disease Controls: 76%
[1]; All Animals, mean (SE)
  Histopathology Glomerulus Diameter: *67.73 (2.10)
  Histopathology Interstitial Inflammation: *0.95 (0.19)
  Histopathology Summed Score: *2.18 (0.57)
  Kidney (paired) Weight (g): *0.432 (0.01) g
[1]; Term Animals, mean (SE)
  Change in Body Weight (g) wk 1-12: 3.30 (0.32) g
  Histopathology Glomerulus Diameter: *67.73 (2.10)
  Histopathology Interstitial Inflammation: *0.95 (0.19)
  Histopathology Summed Score: *2.18 (0.57)
  Kidney (paired) Weight (g): *0.432 (0.01) g
[1]; all animals
  absolute cumulative lymph node weights, reduction vs Vehicle Disease Controls: 87%
  absolute kidney weights, reduction vs Vehicle Disease Controls: 23%
  absolute mesenteric lymph node weights, reduction vs Vehicle Disease Controls: 76%
  absolute spleen weights, reduction vs Vehicle Disease Controls: 77%
  glomerulus crescent score, reduction: 100%
  glomerulus diameter, reduction: 89%
  glomerulus score, reduction: 88%
  interstitial inflammation, reduction: 74%
  percent of glomeruli with crescents, reduction: 100%
  protein cast score, reduction: 90%
  summed histopathology scores, reduction: 86%
  vasculitis, reduction: 82%
[1]; all animals or term animals only
  serum clinical chemistries vs Vehicle Disease Controls: significantly increased ALB, A/G, alkaline phosphatase (ALK), GLU, and Na/K and significantly reduced globulin (GLOB), BUN, BUN/creatinine, K, and AMY
[1]; all animals, mouse age 14-23 weeks
  urine protein scores vs Vehicle Disease Controls: significantly reduced
[1]; mouse age 15-23 weeks, all or term animals
  lymphadenopathy scores vs Vehicle Disease Controls: significantly reduced
[1]; mouse age 20-23 weeks, all or term animals
  skin lesion scores vs Vehicle Disease Controls: significantly reduced
[1]; term animals
  absolute cumulative lymph node weights, reduction vs Vehicle Disease Controls: 90%
  absolute kidney weights, reduction vs Vehicle Disease Controls: 32%
  absolute mesenteric lymph node weights, reduction vs Vehicle Disease Controls: 82%
  absolute spleen weights, reduction vs Vehicle Disease Controls: 82%
[1]; term animals only
  glomerulus crescent score, reduction: 100%
  glomerulus diameter, reduction: 85%
  glomerulus score, reduction: 86%
  interstitial inflammation, reduction: 70%
  percent of glomeruli with crescents, reduction: 100%
  protein cast score, reduction: 86%
  summed histopathology scores, reduction: 82%
  vasculitis, reduction: 80%
[1]; term animals only, mouse age 14-16 and 19-23 weeks
  urine protein scores vs Vehicle Disease Controls: significantly reduced
[1]; week 1 to week 5
  body weight gain: 1.03 g

## C[C@@H]1C[C@H]2[C@@H]3CCC4=CC(=O)C=C[C@]4(C)[C@@]3(F)[C@@H](O)C[C@]2(C)[C@@]1(O)C(=O)CO [Dex, dexamethasone, reference compound]
[2]
  AUC (All Paws) - Corrected for Initial Score: *−5.85(0.73)
  Change in Body Weight (g): −2.22(0.54) g
  Histopathology Summed Score Knees: *1.80(0.66)
  Histopathology Summed Score Paws: *0.09(0.09)
  Histopathology Summed Score Six-Joints: *0.66(0.21)
  Paw Score AUC (All Paws): *1.30(0.37)
[3]; 0.2 mg/kg PO QD, mean(SE)
  AUC (All Paws) - Corrected for Initial Score: *−29.54(2.39)
  Change in Body Weight (g) Days 1-19: −0.17(0.28) g
  Histopathology Summed Score Knees: *5.23(0.89)
  Histopathology Summed Score Paws: *7.20(1.00)
  Histopathology Summed Score Six-Joints: *6.54(0.91)
  Paw Score AUC (All Paws): *16.61(2.05)
[3]; 0.2 mg/kg QD
  absolute spleen weights, reduction vs vehicle controls: 156%
  knee bone resorption, reduction vs vehicle controls: 88%
  knee cartilage damage, reduction vs vehicle controls: 39%
  knee inflammation, reduction vs vehicle controls: 57%
  knee pannus formation, reduction vs vehicle controls: 86%
  six joint histopathology, reduction of summed scores: 57%
  summed knee scores, reduction vs vehicle controls: 57%
